How the values were obtained:
Assay in all cases: microbe, parasite or virus in culture
Assay type in all cases: cell-based
[1] = tested on: SARS-CoV-2 WA-1 (P1); conditions: Severe acute respiratory syndrome coronavirus 2
[2] = tested on: SARS-CoV-2 WA-1 (P1); conditions: Severe acute respiratory syndrome coronavirus 2, A549-ACE2
[3] = tested on: SARS-CoV-2 WA-1 strain; conditions: Severe acute respiratory syndrome coronavirus 2

Compound | EC50 [1] [nM] | EC50 [2] [nM] | EC50 [3] [nM] | EC90 [3] [nM]
CCC(CC)COC(=O)[C@H](C)N[P@](=O)(OC[C@H]1O[C@@](C#N)(c2ccc3c(N)ncnn23)[C@H](O)[C@@H]1O)Oc1ccccc1 [Remdesivir] | 29.1 | 75 |  | 
CC(C)(C)[C@H](NC(=O)C(F)(F)F)C(=O)N1C[C@H]2[C@@H]([C@H]1C(=O)N[C@H](C#N)C[C@@H]1CCNC1=O)C2(C)C [Nirmatrelvir] | 34.8 | 54 | 150 | 370
